In patent US4123552A, “Compositions for preserving crops and animal feedstuffs” (Chevron Research Company, priority 1975, dated 1978):

Key:
[1] = tested on: All Species; assay: Control of seed- and soil-borne pathogens during storage of corn seeds (Table IV), all species; format: cell-based, Rhizopus, Penicillium, Fusarium; details: relative to untreated check
Protocol: A variety of bis-esters was tested for the control of seed- and soil-borne pathogens during storage of corn seeds (Zea mays) by the following procedure.
(§1) A small amount of acetone was added to the bis-ester to make specific volume, plus a small portion of emulsifier making it into a slurry. This preparation was diluted with water to the desired concentration. Solution was then evenly distributed on the wall of a glass jar. High moisture feedcorn with natural infection was stored frozen after harvest until used for this test. The corn seeds were rolled in the jar until they were coated and the solution was completely absorbed on them.
(§2) Following the treatment, the corn seeds were plated on Potato Dextrose Agar plates. For comparison, untreated corn seeds were also plated. Propionic acid was also tested for comparison.
The percentage control of all species was based on the total sum average of mycelial growth in millimeters of all species in the treated seeds relative to the untreated check. The fast growing Rhizopus was evaluated 7 days after treatment, the other fungi after 14 days.

[2] = tested on: high moisture corn; assay: Preservation of high moisture corn in ventilated cans (time until temperature exceeds room temperature); details: for Weeks Effective: corn 25 percent moisture, 70-72 F
Protocol: High moisture corn (25 percent moisture) was treated with various methylene and polyoxymethylene esters of propionic or acetic acid of various dosages. The esters were applied to the corn in a mixer for one minute at 32 RPM. Three replicate two gallon ventilated cans were filled with the treated corn. The cans were then held at a temperature of 70°-72° F. Temperature readings were taken semi-weekly by means of thermocouples in the center of each can. When the temperature exceeded constant room temperature for at least an 8-hour period the treatment was considered broken.

[3] = tested on: Rhizopus sp.; assay: Concentration for 90% control of pathogen on corn seeds (Table V), Rhizopus sp.; format: cell-based; details: 5 days after treatment
Protocol: as §1, §2
(§3) A variety of bis-esters was tested for the control of seed- and soil-borne pathogens during the storage of corn seeds (Zea mays) by the procedure of Example 11. For comparison, propionic acid was also tested.
(§4) Control of each pathogen was determined by mycelial growth in millimeters in the treated seeds relative to untreated seeds. Mycelial growth of Rhizopus species and Fusarium species was evaluated 5 days after treatment. Mycelial growth in Aspergillus niger was evaluated 14 days after treatment.
(§5) The bis-ester tested and the concentration of active ingredient in ounces per 100 lbs. of corn seeds for 90 percent control of each pathogen species are tabulated in Table V.

[4] = tested on: Aspergillus niger; assay: Concentration for 90% control of pathogen on corn seeds (Table V), Aspergillus niger; format: cell-based; details: corn seeds; 14 days after treatment
Protocol: as §1, §2, §3, §4, §5

[5] = tested on: Fusarium sp.; assay: Concentration for 90% control of pathogen on corn seeds (Table V), Fusarium sp.; format: cell-based; details: 5 days after treatment
Protocol: as §1, §2, §3, §4, §5

SMILES | % Control All Species ([1]; 1.0 Oz./100 Lbs.) [%] | % Control All Species ([1]; 2.5 Oz./100 Lbs.) [%] | % Control All Species ([1]; 6.4 Oz./100 Lbs.) [%] | % Control All Species ([1]; 16 Oz./100 Lbs.) [%] | Weeks Effective ([2]; 2 Oz/Bu) [Weeks] | Weeks Effective ([2]; 3 Oz/Bu) [Weeks] | Weeks Effective ([2]; 4 Oz/Bu) [Weeks] | Weeks Effective ([2]; 6 Oz/Bu) [Weeks] | Conc. for 90% Control, Rhizopus sp. [3] [oz./100 lbs.] | Conc. for 90% Control, Aspergillus niger [4] | Conc. for 90% Control, Fusarium sp. [5] [oz./100 lbs.] | Weeks Effective ([2]; 5 Oz/Bu) [Weeks] | effectiveness in preservation of high moisture corn (in words) ([2]; from Table II) | % Control All Species ([1]; 18 Oz./100 Lbs.) [%]
CC(=O)OC(C)OC(C)=O [Ethylidene Bisacetate] | 60 | 87 | 93 | 100 | – | – | – | – | – | – | – | – | – | –
CCC(=O)O [Propionic acid, reference compound] | 28 | 60 | 99 | 99 | 6 | 6 | > 12 | > 12 | 3.8 | 3.4 oz./100 lbs. | 9.6 | – | – | –
CCCC(=O)OCOCOC(=O)CCC [Oxybismethylene Bisbutyrate] | 100 | 100 | 100 | 100 | – | – | – | – | 1.1 | 0.57 oz./100 lbs. | 1.0 | – | – | –
CCC(=O)OCOCOC(=O)CC [Oxybismethylene Propionate, Oxybismethylene Bispropionate] | – | – | – | – | 6 | 12 | > 12 | – | – | – | – | > 12 | remarkably superior to propionic acid in the preservation of high moisture corn | –
CC(=O)OCOC(C)=O [Methylene Bisacetate] | – | – | – | – | – | 6 | – | > 12 | – | – | – | – | – | –
CC(C)C(=O)OCOCOC(=O)C(C)C [Oxybismethylene Bisisobutyrate] | 73 | 87 | 100 | 100 | – | – | – | – | 1.2 | 0.88 oz./100 lbs. | 0.88 | – | – | –
CCC(=O)OC(C)OC(=O)CC [Ethylidene Bispropionate] | 44 | 50 | 83 | 91 | – | – | – | – | – | – | – | – | – | –
CCC(=O)OC(OC(=O)CC)C(Cl)(Cl)Cl [2,2,2-Trichloroethylidene Bispropionate] | 8 | 54 | 74 | – | – | – | – | – | – | – | – | – | – | 89
CC(C)C(=O)OCOC(=O)C(C)C [Methylene Bisisobutyrate] | 98 | 99 | 100 | 98 | – | – | – | – | 3.2 | * (No Control at 2.5 oz./100 lbs.) | 2.0 | – | – | –
CCC(=O)OC(OC(=O)CC)c1ccccc1 [Benzylidene Bispropionate] | 46 | 54 | 79 | 91 | – | – | – | – | – | – | – | – | – | –
CC(=O)OCOCOC(C)=O [Oxybismethylene Acetate, Oxybismethylene Bisacetate] | – | – | – | – | – | 5 | – | > 12 | – | – | – | – | – | –
